The values that follow come from publication PMC6003569, “Novel fluorinated carbonic anhydrase IX inhibitors reduce hypoxia-induced acidification and clonogenic survival of cancer cells” (Oncotarget, 2018).

Each structure is given as a SMILES string. “Also recorded” adds a separate entry of the source. Like-named read-outs stand apart in the source and are kept apart here.

One data set has as its system HeLa cells. Nature of the data set: alamarBlue cell viability assay. In kind it is cell-based, human. Particulars: 72 h; for EC50: Homo sapiens, HeLa, read-out: EC50. A general note: Alamar Blue is a resazurin reagent that responds to reducing activity.
In the next data set the target is T1, CA XIII (Homo sapiens, UniProt Q8N1Q1).
T1 construct: 12 recombinant catalytic domains of human active CA isoforms as determined by FTSA
T1 sequence (Q8N1Q1 4-261 limits assumed): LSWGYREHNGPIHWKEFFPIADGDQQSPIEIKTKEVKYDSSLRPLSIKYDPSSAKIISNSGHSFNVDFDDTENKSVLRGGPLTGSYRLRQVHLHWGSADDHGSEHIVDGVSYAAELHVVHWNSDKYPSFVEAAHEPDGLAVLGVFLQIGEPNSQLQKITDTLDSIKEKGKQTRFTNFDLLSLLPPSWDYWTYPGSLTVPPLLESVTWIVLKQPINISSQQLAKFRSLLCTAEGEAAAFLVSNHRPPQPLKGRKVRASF
Nature of the data set: Fluorescent thermal shift assay (FTSA). In kind it is binding. Particulars: pH 7.0, 37° C. How it is done:
(§1) The binding affinity of synthesized compounds to recombinant human CAs was measured by the fluorescent thermal shift assay (FTSA) where the thermal stabilization of the protein by the compound was determined by following the fluorescence dependence on temperature at various added compound concentrations. The melting temperature (Tm) of CA was measured using the Corbett Rotor-Gene 6000 instrument (QIAGEN Rotor-Gene Q, excitation at 365 ± 20 nm, emission detection at 460 ± 15 nm). The protein was heated from 25 to 99° C at a rate of 1° C/min and the fluorescence change of the solvatochromic dye 8-anilino-1-naphthalene sulfonate (ANS) was followed. The samples consisted of 5–10 μM CA, 0–200 μM ligand, 50 μM ANS, and 50 mM sodium phosphate buffer containing 100 mM NaCl at pH 7.0, with the final DMSO concentration of 2% (v/v). Protein unfolding profiles and the melting temperatures were determined at each ligand concentration while recording extrinsic fluorescence of ANS. Data analysis was performed as previously described. All experiments were repeated at least twice.

In the next data set the target is T2, CA VB (Homo sapiens, UniProt Q9Y2D0).
T2 construct: 12 recombinant catalytic domains of human active CA isoforms as determined by FTSA
T2 sequence (Q9Y2D0 37-296 limits assumed): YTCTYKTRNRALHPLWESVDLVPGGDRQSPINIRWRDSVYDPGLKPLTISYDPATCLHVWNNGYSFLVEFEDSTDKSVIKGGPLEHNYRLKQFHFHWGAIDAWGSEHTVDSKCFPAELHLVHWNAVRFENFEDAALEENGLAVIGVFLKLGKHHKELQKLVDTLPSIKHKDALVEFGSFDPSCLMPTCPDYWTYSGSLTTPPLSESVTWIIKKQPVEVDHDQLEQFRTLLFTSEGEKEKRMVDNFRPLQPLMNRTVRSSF
The experiment in a line: Fluorescent thermal shift assay (FTSA). Particulars: pH 7.0, 37° C. The class given is binding. The procedure:
as §1

The next data set has as its target T3, CA II (Homo sapiens, UniProt P00918).
T3 construct: 12 recombinant catalytic domains of human active CA isoforms as determined by FTSA
Nature of the data set: Fluorescent thermal shift assay (FTSA). The class given is binding. The following applies: pH 7.0, 37° C. How it is done:
as §1

Data set [1] addresses T4, CA IX (Homo sapiens, UniProt Q16790).
T4 construct: 12 recombinant catalytic domains of human active CA isoforms as determined by FTSA
Nature of the data set: Fluorescent thermal shift assay (FTSA). In kind it is binding. Particulars: pH 7.0, 37° C. The procedure: as §1

The next data set deals with T5, CA VI (Homo sapiens, UniProt P23280).
T5 construct: 12 recombinant catalytic domains of human active CA isoforms as determined by FTSA
T5 sequence (P23280 21-278 limits assumed): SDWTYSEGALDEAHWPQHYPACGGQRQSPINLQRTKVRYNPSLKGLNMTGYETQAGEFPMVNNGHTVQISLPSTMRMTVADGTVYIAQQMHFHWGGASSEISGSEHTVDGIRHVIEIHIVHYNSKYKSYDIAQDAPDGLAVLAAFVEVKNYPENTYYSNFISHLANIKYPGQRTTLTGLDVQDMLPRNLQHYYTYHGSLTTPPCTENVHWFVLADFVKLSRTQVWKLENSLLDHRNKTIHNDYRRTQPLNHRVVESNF
Nature of the data set: Fluorescent thermal shift assay (FTSA). The following applies: pH 7.0, 37° C. The class given is binding. How it is done: as §1

For the next data set, the target named is T6, CA I (Homo sapiens, UniProt P00915).
T6 construct: 12 recombinant catalytic domains of human active CA isoforms as determined by FTSA
T6 sequence (P00915 4-261 limits assumed): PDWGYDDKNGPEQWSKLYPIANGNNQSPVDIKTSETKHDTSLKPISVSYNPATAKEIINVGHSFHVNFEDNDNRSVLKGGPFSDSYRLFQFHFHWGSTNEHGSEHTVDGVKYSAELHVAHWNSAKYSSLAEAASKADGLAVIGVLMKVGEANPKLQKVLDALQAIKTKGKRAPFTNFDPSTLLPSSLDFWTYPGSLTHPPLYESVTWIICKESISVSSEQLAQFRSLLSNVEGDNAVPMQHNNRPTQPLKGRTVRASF
Nature of the data set: Fluorescent thermal shift assay (FTSA). In kind it is binding. Particulars: pH 7.0, 37° C. The procedure:
as §1

The target in another data set is T7, CA VII (Homo sapiens, UniProt P43166).
T7 construct: 12 recombinant catalytic domains of human active CA isoforms as determined by FTSA
T7 sequence (P43166 5-262 limits assumed): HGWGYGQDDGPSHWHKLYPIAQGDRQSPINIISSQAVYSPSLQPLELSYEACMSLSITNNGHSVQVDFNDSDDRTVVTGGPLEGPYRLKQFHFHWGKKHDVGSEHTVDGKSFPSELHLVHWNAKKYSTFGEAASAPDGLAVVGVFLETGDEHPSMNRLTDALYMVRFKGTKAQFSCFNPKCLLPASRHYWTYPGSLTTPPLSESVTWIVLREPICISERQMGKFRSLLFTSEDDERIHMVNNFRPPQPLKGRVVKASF
Nature of the data set: Fluorescent thermal shift assay (FTSA). In kind it is binding. The following applies: pH 7.0, 37° C. How it is done:
as §1

In another data set the target is T8, CA IV (Homo sapiens, UniProt P22748).
T8 construct: 12 recombinant catalytic domains of human active CA isoforms as determined by FTSA
T8 sequence (P22748 21-285 limits assumed): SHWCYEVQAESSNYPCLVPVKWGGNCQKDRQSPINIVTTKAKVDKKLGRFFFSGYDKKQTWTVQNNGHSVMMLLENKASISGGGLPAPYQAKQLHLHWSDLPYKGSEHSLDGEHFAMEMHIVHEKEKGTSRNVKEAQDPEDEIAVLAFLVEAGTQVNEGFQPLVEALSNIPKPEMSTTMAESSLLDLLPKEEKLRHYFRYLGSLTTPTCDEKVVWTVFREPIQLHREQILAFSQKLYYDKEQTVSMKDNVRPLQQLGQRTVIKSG
Nature of the data set: Fluorescent thermal shift assay (FTSA). The class given is binding. Particulars: pH 7.0, 37° C. The procedure:
as §1

In a further data set the target is T9, CA XIV (Homo sapiens, UniProt Q9ULX7).
T9 construct: 12 recombinant catalytic domains of human active CA isoforms as determined by FTSA
T9 sequence (Q9ULX7 20-278 limits assumed): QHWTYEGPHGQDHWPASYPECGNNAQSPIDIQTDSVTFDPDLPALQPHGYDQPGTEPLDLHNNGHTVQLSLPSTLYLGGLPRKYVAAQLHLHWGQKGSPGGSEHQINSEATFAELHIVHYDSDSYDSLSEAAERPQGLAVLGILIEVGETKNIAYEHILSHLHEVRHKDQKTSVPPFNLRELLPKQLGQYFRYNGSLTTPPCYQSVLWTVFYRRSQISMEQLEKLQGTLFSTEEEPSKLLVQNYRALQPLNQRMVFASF
The experiment in a line: Fluorescent thermal shift assay (FTSA). The class given is binding. Particulars: pH 7.0, 37° C. The procedure: as §1

The target in the next data set is T10, CA III (Homo sapiens, UniProt P07451).
T10 construct: 12 recombinant catalytic domains of human active CA isoforms as determined by FTSA
T10 sequence (P07451 3-259 limits assumed): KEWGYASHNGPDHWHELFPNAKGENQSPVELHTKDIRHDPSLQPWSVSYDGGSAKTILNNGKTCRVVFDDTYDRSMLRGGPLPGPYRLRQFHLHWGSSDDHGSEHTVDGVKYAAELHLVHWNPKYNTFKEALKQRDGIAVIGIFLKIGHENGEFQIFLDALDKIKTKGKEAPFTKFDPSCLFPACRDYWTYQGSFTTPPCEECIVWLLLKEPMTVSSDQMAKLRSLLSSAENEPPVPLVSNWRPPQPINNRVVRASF
The experiment in a line: Fluorescent thermal shift assay (FTSA). In kind it is binding. Particulars: pH 7.0, 37° C. The procedure:
as §1

The target in the next data set is T11, CA XII (Homo sapiens, UniProt O43570).
T11 construct: 12 recombinant catalytic domains of human active CA isoforms as determined by FTSA
T11 sequence (O43570 30-289 limits assumed): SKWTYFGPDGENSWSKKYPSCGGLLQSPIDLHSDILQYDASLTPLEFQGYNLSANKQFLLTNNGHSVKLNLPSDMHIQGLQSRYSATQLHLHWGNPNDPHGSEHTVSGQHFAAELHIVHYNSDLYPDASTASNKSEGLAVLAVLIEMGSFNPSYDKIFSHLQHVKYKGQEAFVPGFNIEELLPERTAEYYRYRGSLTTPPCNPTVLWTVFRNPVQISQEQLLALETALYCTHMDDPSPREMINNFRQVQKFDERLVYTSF
The experiment in a line: Fluorescent thermal shift assay (FTSA). In kind it is binding. The following applies: pH 7.0, 37° C. The procedure: as §1

The next data set concerns the target T12, CA VA (Homo sapiens, UniProt P35218).
T12 construct: 12 recombinant catalytic domains of human active CA isoforms as determined by FTSA
The experiment in a line: Fluorescent thermal shift assay (FTSA). The class given is binding. The following applies: pH 7.0, 37° C. How it is done: as §1

The test system of data set [2] is H460 cells. The experiment in a line: alamarBlue cell viability assay. The class given is cell-based. The following applies: Homo sapiens, NCI-H460, 72 h, read-out: EC50.
Protocol: (§2) Cytotoxicity of inhibitors was determined by the alamarBlue® cell viability assay (Life Technologies). […] Briefly, cells were seeded in 96-well plates and allowed to attach overnight in normoxia. […] After 72 h, cells were incubated with 10% alamarBlue® for 2 h under normoxia at 37° C. The fluorescence signal was measured using the multi-mode microplate reader (FLUOstar® Omega, BMG Labtech) at 580 nm (excitation wavelength 540 nm). Response to treatments was quantified by evaluating EC50 values (concentration of inhibitor that leads to half-maximum viability response determined by Hill fit).
For data set [3], the system named is H460 cells. Nature of the data set: Extracellular acidification (pH) assay. The class given is cell-based, human. The following applies: H460, hypoxia 0.2% O2, 72 h.
Data set [4] concerns the target T4, CA IX. The experiment in a line: Stopped-flow CO2 hydration inhibition assay (SFA). The following applies: pH 7.5, 25° C, value in parentheses. In kind it is biochemical. How it is done:
The enzymatic activity of carbonic anhydrase isoforms and their inhibition was determined by the stopped-flow CO2 hydration assay where the formed acid was followed by the absorbance change of a pH indicator. The Applied Photophysics SX.18MV-R stopped-flow spectrometer was used to measure the absorbance change of Phenol-Red pH indicator at 557 nm. Saturated CO2 solution was prepared by bubbling the CO2 gas in MilliQ water at 25° C for 1 h. Experiments were performed at 25° C using 25 mM Hepes buffer containing 50 mM NaCl (pH 7.5), 0–10 μM compound with the final 0.4% (v/v) DMSO concentration. The final enzyme concentration was 10 nM for CA IX and 20 nM for CA XII. Raw curves of absorbance change were analyzed using Origin 8.1 (OriginLab Corporation) and the slope values were used to evaluate the rates of CO2 hydration. Spontaneous CO2 hydration rate was used as a zero value, while the CA catalyzed reaction rate - as a maximum value.

The test system of data set [5] is extracellular CA in intact hypoxic MDA-MB-231 cells. Particulars: 1 μM; cited from earlier work.

In general, EC50 refers to the concentration needed to bring the measured effect to its halfway point. For orientation: Kd means a measure of binding affinity in units of concentration. The Ki is the dissociation constant of the complex between target and ligand, obtained from inhibition or displacement.

T12 sequence (P35218 39-296 limits assumed): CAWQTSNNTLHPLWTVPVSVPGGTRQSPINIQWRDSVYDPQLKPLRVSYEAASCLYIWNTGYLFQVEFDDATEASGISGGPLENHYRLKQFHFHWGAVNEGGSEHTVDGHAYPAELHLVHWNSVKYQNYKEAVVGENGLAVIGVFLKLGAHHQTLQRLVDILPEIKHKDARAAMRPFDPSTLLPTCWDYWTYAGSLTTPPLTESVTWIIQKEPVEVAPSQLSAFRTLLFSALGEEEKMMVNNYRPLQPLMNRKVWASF
Protocol for HeLa cells: as §2

For the compound `NS(=O)(=O)c1c(F)c(F)c(SCCc2ccc(C(=O)O)cc2)c(F)c1NC1CCCCCCC1` [VR16-10, 4-(2-{[4-(Aminosulfonyl)-3-(cyclooctylamino)-2,5,6-tetrafluorophenyl]thio}ethyl)benzoic acid], the EC50 with HeLa cells (0.2% O2 (hypoxia)) was over 150000 nM; in the data set on HeLa cells (21% O2 (normoxia)) it was 93300 ± 5800 nM; with H460 cells [2] (H460, 0.2% O2 (hypoxia)) it was over 150000 nM; in the data set with H460 cells [2] (H460, 21% O2 (normoxia)), 83300 ± 15300 nM. Besides, the “Cytotoxic ratio (CR) of selectivity to hypoxia” value with HeLa cells (human, HeLa cells) was over 0.62. Besides, the Kd on CA XIII is 40 nM; on CA VB, 100 nM; at CA II, 1000 nM; at CA IX [1], 0.2 nM; on CA VI, 26300 nM; at CA I it was 5000 nM. Moreover, the Kd on CA VII is 100 nM; on CA IV, 1820 nM; at CA XIV, 170 nM; at CA III, at least 200000 nM; at CA XII, 370 nM; at CA VA it was 5000 nM. Moreover, the hypoxia-induced extracellular acidification entry in the data set on H460 cells [3] was “Dose-dependent reduction; also recorded: smallest, albeit significant (p < 0.05), impact”. The Ki at CA IX [4] was under 1 nM.
As to `CC(=O)Nc1nnc(S(N)(=O)=O)s1` [acetazolamide], the “Extracellular CA activity” value in data set [5] is given as “significantly reduced”.
